One assay relates to IL-1β. Briefly: PBMC assay: IL-1β release after LPS stimulation. Format: cell-based. To be noted: human PBMCs, 30 min compound, 100 ng/ml LPS for 6 hrs, MSD, read-out: IL1β AC50. The protocol:
The activity of a compound according to the present invention can be assessed by in vitro methods.
(§1) Peripheral venous blood was collected from healthy individuals and human peripheral blood mononuclear cells (PBMCs) were isolated from blood by Ficoll-Histopaque (Sigma-Aldrich, A0561) density gradient centrifugation. After isolation, PBMCs were stored in liquid nitrogen for later use. Upon thawing, PBMC cell viability was determined in growth medium (RPMI media supplemented with 10% fetal bovine serum, 1% Pen-Strep and 1% L-glutamine). Compounds were spotted in a 1:3 serial dilution in DMSO and diluted to the final concentration in 30 μl medium in 96 well plates (Falcon, 353072). PBMCs were added at a density of 7.5×10^4 cells per well and incubated for 30 min in a 5% CO2 incubator at 37° C. LPS stimulation was performed by addition of 100 ng/ml LPS (final concentration, Invivogen, tlrl-smlps) for 6 hrs followed by collection of cellular supernatant and the analysis of IL-1β (μM) and TNF cytokines levels (μM) via MSD technology according to manufacturers' guidelines (MSD, K151A0H).
(§2) IC50 and AC50 values (for […]) and EC50 and AC50 values (TNF) were obtained on compounds of the invention/examples, and the AC50 values are depicted in the following table: […]

For another assay, the system named is TNF. As to the kind of experiment: PBMC assay: TNF cytokine level after LPS stimulation. Format: cell-based. The following applies: human PBMCs, 30 min compound, 100 ng/ml LPS for 6 hrs, MSD. As to the method:
as §1, §2

Molecules are shown by their SMILES. Read-outs that look alike come from different tables or passages of the source. Some results are limits rather than exact numbers.

From patent publication US20240109905A1, “4-ALKOXY-6-OXO-PYRIDAZINE DERIVATIVES MODULATING NLRP3” (JANSSEN PHARMACEUTICA NV, priority 2021, published 2024) come the findings set out here.

By AC50 is commonly meant the midpoint of the concentration-response curve, whichever way the signal moves. For `CC(C)c1nn(CC(=O)Nc2ccc3nncn3n2)c(=O)cc1OCC(C)(F)F` [Compound 56], the AC50 was 0.13 µM in the assay on IL-1β (PBMC) and over 20 µM in the assay on TNF (PBMC).
`CC(C)COc1cc(=O)n(CC(=O)Nc2nc3cccnc3o2)nc1C(C)C` [Compound 144]: the AC50 in the assay on IL-1β (PBMC) and in the assay with TNF (PBMC) was over 20 µM each time.
With `CC(C)COc1cc(=O)n(CC(=O)Nc2ccc3nncn3c2)nc1C(C)C` [Compound 10F], the AC50 with IL-1β (PBMC) is 0.06 µM; in the assay on TNF (PBMC), over 10 µM.
The like results for `CC(C)COc1cc(=O)n(CC(=O)Nc2ccc3nncn3n2)nc1OCC(C)C` [Compound 108] were, in that order, 1.33 µM and over 20 µM.
For `CC(C)c1nn(CC(=O)Nc2ccc3nncn3n2)c(=O)c(Cl)c1OCC1CC1` [Compound 44, N-([1,2,4]triazolo[4,3-b]pyridazin-6-yl)-2-(5-chloro-4-(cyclopropylmethoxy)-3-isopropyl-6-oxopyridazin-1(6H)-yl)acetamide] the same measures were 0.07 µM and 3.53 µM.
In the case of `CC(C)c1nn(CC(=O)Nc2ccc3nncn3c2)c(=O)cc1OCC1(C)COC1` [Compound 15F], the AC50 in the assay on IL-1β (PBMC) is 2.3 µM; in the assay on TNF (PBMC), over 10 µM.
In the case of `CC(C)COc1cc(=O)n(NC23CCC(O)(CC2)C3)nc1C(C)C` [Compound 59], the figures for the AC50 in the assay with IL-1β and with TNF were 0.16 µM and over 20 µM, respectively.
Turning to `Cc1ccc2c(c1)nc(NC(=O)Cn1nc(C(C)C)c(OCC(C)C)cc1=O)n2C` [Compound 133], the AC50 in the assay on IL-1β (PBMC) and in the assay with TNF (PBMC) was over 10 µM throughout.
Regarding `CN(C)c1nn(CC(=O)Nc2ccc3nncn3c2)c(=O)cc1OCC(F)(F)F` [Compound 106], the figures for the AC50 with IL-1β (PBMC) and in the assay on TNF (PBMC) were 1.21 µM and over 20 µM, respectively.
For the molecule `CC(C)COc1cc(=O)n(CC(=O)Nc2nc3cc(Cl)ccc3o2)nc1C(C)C` [Compound 141, N-(5-chlorobenzo[d]oxazol-2-yl)-2-(4-isobutoxy-3-isopropyl-6-oxopyridazin-1(6H)-yl)acetamide], the AC50 is 12.2 µM in the assay on IL-1β (PBMC) and over 20 µM in the assay on TNF (PBMC).
Take `CC(C)COc1cc(=O)n(CC(=O)NC23CC(N4CCCCC4)(C2)C3)nc1C(C)C` [Compound 121]: the results for the AC50 in the assay on IL-1β (PBMC) and in the assay on TNF (PBMC) were 2.71 µM and over 20 µM, respectively.
For `CC(C)COc1cc(=O)n(CC(=O)NC23CC(C2)C3)nc1C(C)C` [Compound 110] the same measures were 1.44 µM and over 20 µM.
The like results for `CC(C)COc1cc(=O)n(CC(=O)NC23C4C5C2C2C3C4C52C(=O)O)nc1C(C)C` (centres unmarked) [Compound 125] were, in that order, 3.41 µM and over 20 µM.
The like results for `CC(C)COc1cc(=O)n(CCO)nc1N(C)C` [Compound 158] were, in that order, over 20 µM and over 20 µM.
`CC(C)c1nn(CC(=O)Nc2ccc3nncn3c2)c(=O)cc1OC1CCC1` [Compound 14F]: the AC50 is 0.68 µM in the assay on IL-1β (PBMC) and over 10 µM with TNF (PBMC).
Consider `Cc1ccn2nc(NC(=O)Cn3nc(C(C)C)c(OCC(C)C)cc3=O)cc2n1` [Compound 120], for which the AC50 with IL-1β (PBMC) is 2.66 µM; in the assay with TNF (PBMC) it was over 20 µM.
Consider `CC(C)COc1cc(=O)n(CC(=O)Nc2nc3ccccc3o2)nc1C(C)C` [Compound 128], for which the AC50 in the assay on IL-1β (PBMC) was 4.28 µM; in the assay with TNF (PBMC) it was over 20 µM.
The like results for `CC(C)COc1cc(=O)n(CC(=O)NC23CCC(N)(C2)C3)nc1C(C)C` [Compound 86] were, in that order, 0.66 µM and over 20 µM.
As for `CC(C)COc1cc(=O)n(CC(=O)Nc2ccc3nncn3n2)nc1C(C)C` [Compound 41], the values for the AC50 in the assay on IL-1β (PBMC) and in the assay with TNF (PBMC) were 0.04 µM and over 20 µM, respectively.
The like results for `Cc1cnc(C23CC(NC(=O)Cn4nc(C(C)C)c(OCC(C)C)cc4=O)(C2)C3)o1` [Compound 139, 2-(4-isobutoxy-3-isopropyl-6-oxopyridazin-1(6H)-yl)-N-(3-(5-methyloxazol-2-yl)bicyclo[1.1.1]pentan-1-yl)acetamide] were, in that order, 10.8 µM and over 20 µM.
The like results for `Cc1cc(NC(=O)Cn2nc(C(C)C)c(OCC(C)C)cc2=O)ccn1` [Compound 65] were, in that order, 0.21 µM and over 20 µM.
`CC(C)c1nn(CC(=O)Nc2ccc3nncn3c2)c(=O)cc1OCC(C)(F)F` [Compound 8F]: the AC50 in the assay on IL-1β (PBMC) was 0.19 µM; in the assay with TNF (PBMC), over 10 µM.
For `CC(C)COc1cc(=O)n(CC(=O)Nc2nc3cc(C#N)ccc3n2C)nc1C(C)C` [Compound 148] the same measures were over 20 µM and over 20 µM.
The like results for `CCOc1cc(=O)n(CC(=O)Nc2ccc3nncn3n2)nc1C1CC1` [Compound 31C] were, in that order, 0.92 µM and over 10 µM.
The like results for `CC(C)COc1cc(=O)n(CC(=O)Nc2nc3ccc(Cl)cc3n2C)nc1C(C)C` [Compound 134] were, in that order, over 10 µM and over 10 µM.
Take `CC(C)c1nn(CC(=O)Nc2ccc3nncn3c2)c(=O)cc1OCC1CC1(F)F` (centres unmarked) [Compound 21F]: the AC50 with IL-1β (PBMC) was 0.65 µM; in the assay on TNF (PBMC) it was over 10 µM.
Turning to `COc1ccc2nc(NC(=O)Cn3nc(C(C)C)c(OCC(C)C)cc3=O)nn2c1` [Compound 123], the AC50 in the assay on IL-1β (PBMC) was 2.91 µM; in the assay on TNF (PBMC), over 20 µM.
The like results for `CC(C)c1nn(CC(=O)Nc2ccc3nncn3c2)c(=O)c(Cl)c1OCC1CC1` [Compound 74] were, in that order, 0.36 µM and over 20 µM.
On to `CC(C)c1nn(CC(=O)Nc2ccc3nncn3n2)c(=O)c(Cl)c1OCC(F)(F)F` [Compound 72], for which the values for the AC50 in the assay with IL-1β (PBMC) and with TNF (PBMC) were 0.27 µM and 16.6 µM, respectively.
The like results for `CC(C)Oc1cc(=O)n(CC(=O)Nc2ccc3nncn3c2)nc1C(C)C` [Compound 18F] were, in that order, 0.66 µM and over 10 µM.
Consider `CC(C)COc1cc(=O)n(CC(=O)NC23CC(C4=NN(C)C(=O)C4)(C2)C3)nc1C(C)C` [Compound 98, 2-(4-isobutoxy-3-isopropyl-6-oxopyridazin-1(6H)-yl)-N-(3-(1-methyl-5-oxo-4,5-dihydro-1H-pyrazol-3-yl)bicyclo[1.1.1]pentan-1-yl)acetamide], for which the AC50 is 0.96 µM with IL-1β (PBMC) and over 20 µM with TNF (PBMC).
For `CC(C)c1nn(CC(=O)Nc2ccc3nncn3n2)c(=O)cc1OCC1(F)CC1` [Compound 57] the same measures were 0.14 µM and over 20 µM.
For `CCCOc1cc(=O)n(CC(=O)Nc2ccc3nncn3c2)nc1C(C)C` [Compound 24F] the same measures were 0.19 µM and over 10 µM.
For `CC(C)COc1cc(=O)n(CC(=O)Nc2cc3ccccn3n2)nc1C(C)C` [Compound 113] the same measures were 1.79 µM and over 20 µM.
Regarding `COc1c(C(C)C)nn(CC(=O)Nc2ccc3nncn3c2)c(=O)c1C1CC1` [Compound 28E], the figures for the AC50 in the assay on IL-1β (PBMC) and with TNF (PBMC) were over 15 µM and over 10 µM, respectively.
As for `CC(C)COc1c(C(C)C)nn(CC(=O)Nc2ccc3nncn3c2)c(=O)c1C(C)O` (centres unmarked) [Compound 155], the AC50 in the assay on IL-1β (PBMC) and in the assay with TNF (PBMC) was over 20 µM throughout.
Regarding `COc1nn(CC(=O)Nc2ccc3nncn3n2)c(=O)cc1OCC(F)(F)F` [Compound 154], the AC50 in the assay on IL-1β (PBMC) and in the assay with TNF (PBMC) was over 20 µM in each case.
As for `COc1cc(=O)n(CC(=O)Nc2ccc3nncn3n2)nc1C(C)C` [Compound 27C, N-([1,2,4]triazolo[4,3-b]pyridazin-6-yl)-2-(3-isopropyl-4-methoxy-6-oxopyridazin-1(6H)-yl)acetamide], the AC50 in the assay with IL-1β (PBMC) was 13.3 µM; in the assay with TNF (PBMC), over 10 µM.
For `COCC12CC(NC(=O)Cn3nc(C(C)C)c(OCC(C)C)cc3=O)(C1)C2` [Compound 111] the same measures were 1.47 µM and over 20 µM.
As for `CC(C)COc1cc(=O)n(CC(=O)Nc2nc3cc(C(F)(F)F)ccn3n2)nc1C(C)C` [Compound 87], the AC50 in the assay with IL-1β (PBMC) was 0.66 µM; with TNF (PBMC) it was over 20 µM.
Turning to `CC(C)COc1cc(=O)n(CC(=O)Nc2cn3cc(Br)ncc3n2)nc1C(C)C` [Compound 126], the results for the AC50 in the assay on IL-1β (PBMC) and in the assay with TNF (PBMC) were 3.56 µM and over 20 µM, respectively.
The like results for `CC(C)c1nn(CC(=O)Nc2ccc3nncn3c2)c(=O)cc1OCC1CS(=O)(=O)C1` [Compound 6F] were, in that order, over 15 µM and over 10 µM.
For `Cc1c(OCC(C)C)c(C(C)C)nn(CC(=O)Nc2ccc3nncn3c2)c1=O` [Compound 54, N-([1,2,4]triazolo[4,3-a]pyridin-6-yl)-2-(4-isobutoxy-3-isopropyl-5-methyl-6-oxopyridazin-1(6H)-yl)acetamide], the AC50 in the assay with IL-1β (PBMC) was found to be 0.1 µM; in the assay with TNF (PBMC) it was 15.6 µM.
The like results for `CC(C)COc1cc(=O)n(CC(=O)N[C@]23CC[C@@](NC(=O)OC(C)(C)C)(CC2)C3)nc1C(C)C` [Compound 122, tert-butyl ((1r,4r)-4-(2-(4-isobutoxy-3-isopropyl-6-oxopyridazin-1(6H)-yl)acetamido)bicyclo[2.2.1]heptan-1-yl)carbamate] were, in that order, 2.81 µM and over 20 µM.
The like results for `CC(C)COc1c(C(C)C)nn(CC(=O)Nc2ccc3nncn3c2)c(=O)c1C(F)(F)F` [Compound 163] were, in that order, over 20 µM and over 20 µM.
The like results for `CC(C)COc1cc(=O)n(CC(=O)Nc2nc3ccccn3n2)nc1C(C)C` [Compound 53] were, in that order, 0.1 µM and over 20 µM.
